In patent publication EP4786487A1, “PEPTIDE” (Peptidream Inc, priority 2023, dated 2025):
Read-outs that look alike come from different tables or passages of the source. Starred links: 1 amine or outer side, 2 acyl side, 3 side chain; linkers in the order of their positions; H or OH if unused. Positions of bridges follow the written chain, without caps; N, C: chain ends. Non-standard residues stand in square brackets, D forms with d. Residues, ends and D or L forms follow the SMILES beside them. Groups on a side chain read outwards from the residue. *: point of attachment. X10 = O=C([C@H](Cc1cn(Cc2ccccc2)c2ccccc12)N[*:1])[*:2]; Phe(3-OCH2COOH) = N[C@@H](Cc1cccc(OCC(=O)O)c1)C(=O)O; Trp(1-Ph) = N[C@@H](Cc1cn(-c2ccccc2)c2ccccc12)C(=O)O; NMePhe(3-Ph) = CN[C@@H](Cc1cccc(-c2ccccc2)c1)C(=O)O; Phe(4-COOH) = N[C@@H](Cc1ccc(C(=O)O)cc1)C(=O)O; Piperazinyl(4-CH2COOH) = O=C(O)CN1CCN(*)CC1; Gly(decyl) = CCCCCCCCCC[C@H](N)C(=O)O; Gly(N(CH2)3COOH) = O=C(O)CCCNCC(=O)O; AEF = NCCOc1ccc(C[C@H](N)C(=O)O)cc1; X1 = CCCCCCC[C@H](N[*:1])C(=O)[*:2]; NMeF = CN[C@@H](Cc1ccccc1)C(=O)O; 4Pal = N[C@@H](Cc1ccncc1)C(=O)O; NMeE = CN[C@@H](CCC(=O)O)C(=O)O; Cha = N[C@@H](CC1CCCCC1)C(=O)O; Ahp(2) = CCCCC[C@H](N)C(=O)O; NMeA = CN[C@@H](C)C(=O)O; X9 = NC(=O)CC1CCN(*)CC1; CO = O=C([*:1])[*:2]; Nme = COCCNCC(=O)O; Sar = CNCC(=O)O

Assays:
Myostatin = molecular target: T1, Myostatin (Homo sapiens, UniProt O14793); experiment: HepG2 reporter gene assay, Evaluation Procedure (2): 2-concentrations assay, myostatin inhibition; assay type: cell-based; conditions: HepG2
T1 construct: active myostatin (also called mature myostatin) is a homodimer consisting of two C-terminal growth factor domains; purchased R&D systems 788-G8/CF
T1 sequence (O14793 267-375): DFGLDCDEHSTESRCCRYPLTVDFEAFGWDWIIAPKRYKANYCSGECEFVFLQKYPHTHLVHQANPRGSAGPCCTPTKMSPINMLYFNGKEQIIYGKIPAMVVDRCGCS
Procedure, shortened: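 HepG2 cells (HB-8065, ATCC) carrying the transfected pGL3(CAGA)12-luc reporter plasmid were treated with myostatin (788-G8/CF, R&D systems) at a final concentration of 10 ng/mL plus peptide and incubated at 37°C, 5% CO2 for 20 to 24 hours. Luminescence was read after adding PBS mixed 1:1 with One-Glo substrate, and inhibition rate was calculated.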

GDF-11 = molecular target: T2, GDF-11 (Homo sapiens, UniProt O95390); experiment: HepG2 reporter gene assay, Evaluation Procedure (2): 2-concentrations assay, GDF-11 inhibition; assay type: cell-based; conditions: for inhibition at 0.03 µM: HepG2, peptide 30nM, read-out: GDF11 Inhibition 30nM; for inhibition at 0.03 µM / inhibition at 0.1 µM: GDF-11 10 ng/mL; for inhibition at 0.1 µM: HepG2, peptide 100nM, read-out: GDF11 Inhibition 100nM; for inhibition: read-out: inhibition rate (GDF-11 inhibition assay)
T2 construct: purchased R&D systems 1958-GD-G8/CF
T2 sequence (O95390 299-407): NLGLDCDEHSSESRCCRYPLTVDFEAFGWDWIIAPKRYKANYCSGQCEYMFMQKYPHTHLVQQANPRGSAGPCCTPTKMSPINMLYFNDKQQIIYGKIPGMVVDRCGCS
Procedure, shortened: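 HepG2 cells carrying the transfected pGL3(CAGA)12-luc reporter, a pGL3 vector with luciferase placed downstream of 12 CAGA repeats, were stimulated with GDF-11 at a final 10 ng/mL together with test peptide. Blank wells received no GDF-11 and no peptide. Plates were incubated 20 to 24 hours at 37°C with 5% CO2. Luminescence from One-Glo substrate was read to calculate percent inhibition.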

[1] = peptide 30nM, Myostatin 10 ng/mL, read-out: Myostatin Inhibition 30nM
[2] = peptide 100nM, Myostatin 10 ng/mL, read-out: Myostatin Inhibition 100nM
[3] = Table 7-3/7-4, myostatin 10 ng/mL, peptide at the higher of the 2 concentrations, read-out: inhibition rate (myostatin inhibition assay)
[4] = Table 7-3/7-4, myostatin 10 ng/mL, peptide at the lower of the 2 concentrations, read-out: inhibition rate (myostatin inhibition assay)
[5] = HepG2, first GDF-11 column of Table 7-3/7-4, GDF-11 10 ng/mL, peptide at the lower of the 2 concentrations
[6] = HepG2, second GDF-11 column of Table 7-3/7-4, GDF-11 10 ng/mL, peptide at the higher of the 2 concentrations

SMILES	inhibition at 0.03 µM (Myostatin; [1]) [%]	inhibition at 0.1 µM (Myostatin; [2]) [%]	inhibition at 0.03 µM (GDF-11) [%]	inhibition at 0.1 µM (GDF-11) [%]	inhibition at 0.1 µM (Myostatin; [3]) [%]	inhibition at 0.03 µM (Myostatin; [4]) [%]	inhibition (GDF-11; [5]) [%]	inhibition (GDF-11; [6]) [%]
CC[C@H](C)[C@@H]1NC(=O)[C@H](Cc2ccccc2)N(C)C(=O)[C@H](Cc2ccc(O)cc2)NC(=O)[C@H](Cc2c[nH]c3ccccc23)NC(=O)[C@H](CCCNC(=N)N)NC(=O)[C@H](C)NC(=O)CSC[C@@H](C(N)=O)NC(=O)[C@H](Cc2ccccc2)N(C)C(=O)[C@H](C)N(C)C(=O)[C@H](CC(C)C)NC(=O)[C@H](Cc2ccccc2)N(C)C(=O)[C@H](CCCNC(=N)N)NC(=O)[C@H](Cc2ccc(O)cc2)NC(=O)[C@H](Cc2ccc(O)cc2)NC(=O)CN(C)C1=O [Myostatin_Myostatin_000099] ({CH2CO}-ARWY[NMeF]I[Sar]YYR[NMeF]L[NMeA][NMeF]C-NH2; thioether N-15)	56	87	0	19				
CCCCCCC[C@@H]1NC(=O)[C@H](Cc2ccccc2)N(C)C(=O)[C@H](CCCNC(=N)N)NC(=O)[C@H](Cc2ccc(C(=O)O)cc2)NC(=O)[C@H](Cc2cccc(OCC(=O)O)c2)NC(=O)[C@H](C)N(C)C(=O)[C@H]([C@@H](C)CC)NC(=O)[C@H](Cc2ccccc2)N(C)C(=O)[C@H](Cc2ccc(O)cc2)NC(=O)[C@H](Cc2c[nH]c3ccccc23)NC(=O)[C@H](C)NC(=O)CN(CCCC(=O)O)C(=O)CSC[C@H](C(=O)N2CCN(CC(=O)O)CC2)NC(=O)[C@H](Cc2ccccc2)N(C)C(=O)[C@H](C)N(C)C1=O [Myostatin_99_v429] ({CH2CO}-[Gly(N(CH2)3COOH)]AWY[NMeF]I[NMeA][Phe(3-OCH2COOH)][Phe(4-COOH)]R[NMeF][X1][NMeA][NMeF][dC]-{Piperazinyl(4-CH2COOH)}; thioether N-15)					100	100	0	0
CCCCC[C@@H]1NC(=O)[C@H](Cc2ccccc2)N(C)C(=O)[C@H](CCCNC(=N)N)NC(=O)[C@H](Cc2ccc(C(=O)O)cc2)NC(=O)[C@H](Cc2cccc(OCC(=O)O)c2)NC(=O)CN(C)C(=O)[C@H]([C@@H](C)CC)NC(=O)[C@H](Cc2ccccc2)N(C)C(=O)[C@H](Cc2ccc(O)cc2)NC(=O)[C@H](Cc2c[nH]c3ccccc23)NC(=O)[C@H](C)NC(=O)[C@H](C)NC(=O)CSC[C@H](C(N)=O)NC(=O)[C@H](Cc2ccccc2)N(C)C(=O)[C@H](C)N(C)C1=O [Myostatin_99_v206] ({CH2CO}-AAWY[NMeF]I[Sar][Phe(3-OCH2COOH)][Phe(4-COOH)]R[NMeF][Ahp(2)][NMeA][NMeF][dC]-NH2; thioether N-15)	88	97	0	0				
CCCCCCC[C@@H]1NC(=O)[C@H](Cc2ccccc2)N(C)C(=O)[C@H](CCCNC(=N)N)NC(=O)[C@H](Cc2ccc(C(=O)O)cc2)NC(=O)[C@H](Cc2cccc(OCC(=O)O)c2)NC(=O)[C@H](C)N(C)C(=O)[C@H]([C@@H](C)CC)NC(=O)[C@H](Cc2ccccc2)N(C)C(=O)[C@H](Cc2ccc(O)cc2)NC(=O)[C@H](Cc2cn(-c3ccccc3)c3ccccc23)NC(=O)[C@H](C)NC(=O)[C@H](C)NC(=O)CSC[C@H](C(=O)N2CCN(CC(=O)O)CC2)NC(=O)[C@H](Cc2cccc(-c3ccccc3)c2)N(C)C(=O)[C@H](CCC(=O)O)N(C)C1=O [Myostatin_99_v330] ({CH2CO}-AA[Trp(1-Ph)]Y[NMeF]I[NMeA][Phe(3-OCH2COOH)][Phe(4-COOH)]R[NMeF][X1][NMeE][NMePhe(3-Ph)][dC]-{Piperazinyl(4-CH2COOH)}; thioether N-15)					100	100	0	0
CCCCCCC[C@@H]1NC(=O)[C@H](Cc2ccccc2)N(C)C(=O)[C@H](CCCNC(=N)N)NC(=O)[C@H](Cc2ccc(C(=O)O)cc2)NC(=O)[C@H](Cc2cccc(OCC(=O)O)c2)NC(=O)[C@H](C)N(C)C(=O)[C@H]([C@@H](C)CC)NC(=O)[C@H](Cc2ccccc2)N(C)C(=O)[C@H](Cc2ccc(O)cc2)NC(=O)[C@H](Cc2c[nH]c3ccccc23)NC(=O)[C@H](C)NC(=O)CN(CCCC(=O)O)C(=O)CSC[C@H](C(=O)N2CCC(CC(N)=O)CC2)NC(=O)[C@H](Cc2ccccc2)N(C)C(=O)[C@H](C)N(C)C1=O [Myostatin_99_v432] ({CH2CO}-[Gly(N(CH2)3COOH)]AWY[NMeF]I[NMeA][Phe(3-OCH2COOH)][Phe(4-COOH)]R[NMeF][X1][NMeA][NMeF][dC]-X9; thioether N-15)					100	100	0	0
CCCCCCC[C@@H]1NC(=O)[C@H](Cc2ccccc2)N(C)C(=O)[C@H](CCCNC(=N)N)NC(=O)[C@H](Cc2ccc(C(=O)O)cc2)NC(=O)[C@H](Cc2cccc(OCC(=O)O)c2)NC(=O)CN(C)C(=O)[C@H]([C@@H](C)CC)NC(=O)[C@H](Cc2ccccc2)N(C)C(=O)[C@H](Cc2ccc(OCCN)cc2)NC(=O)[C@H](Cc2c[nH]c3ccccc23)NC(=O)[C@H](C)NC(=O)[C@H](C)NC(=O)CSC[C@H](C(=O)N2CCN(CC(=O)O)CC2)NC(=O)[C@H](Cc2ccccc2)N(C)C(=O)[C@H](C)N(C)C1=O [Myostatin_99_v299] ({CH2CO}-AAW[AEF][NMeF]I[Sar][Phe(3-OCH2COOH)][Phe(4-COOH)]R[NMeF][X1][NMeA][NMeF][dC]-{Piperazinyl(4-CH2COOH)}; thioether N-15)	93	99	0	0				
CCCCCCC[C@@H]1NC(=O)[C@H](Cc2ccccc2)N(C)C(=O)[C@H](CCCNC(=N)N)NC(=O)[C@H](Cc2ccc(C(=O)O)cc2)NC(=O)[C@H](Cc2cccc(OCC(=O)O)c2)NC(=O)CN(C)C(=O)[C@H]([C@@H](C)CC)NC(=O)[C@H](Cc2ccccc2)N(C)C(=O)[C@H](Cc2ccc(O)cc2)NC(=O)[C@H](Cc2cn(Cc3ccccc3)c3ccccc23)NC(=O)[C@H](C)NC(=O)[C@H](C)NC(=O)CSC[C@H](C(=O)N2CCN(CC(=O)O)CC2)NC(=O)[C@H](Cc2ccccc2)N(C)C(=O)[C@H](C)N(C)C1=O [Myostatin_99_v312] ({CH2CO}-AA[X10]Y[NMeF]I[Sar][Phe(3-OCH2COOH)][Phe(4-COOH)]R[NMeF][X1][NMeA][NMeF][dC]-{Piperazinyl(4-CH2COOH)}; thioether N-15)					100	98	0	6
CCCCCCC[C@@H]1NC(=O)[C@H](Cc2ccccc2)N(C)C(=O)[C@H](CCCNC(=N)N)NC(=O)[C@H](Cc2ccc(C(=O)O)cc2)NC(=O)[C@H](Cc2ccncc2)NC(=O)CN(C)C(=O)[C@H]([C@@H](C)CC)NC(=O)[C@H](Cc2ccccc2)N(C)C(=O)[C@H](Cc2ccc(O)cc2)NC(=O)[C@H](Cc2c[nH]c3ccccc23)NC(=O)[C@H](C)NC(=O)CN(CCOC)C(=O)CSC[C@H](C(=O)O)NC(=O)[C@H](Cc2ccccc2)N(C)C(=O)[C@H](C)N(C)C1=O [Myostatin_99_v224] ({CH2CO}-[Nme]AWY[NMeF]I[Sar][4Pal][Phe(4-COOH)]R[NMeF][X1][NMeA][NMeF][dC]-OH; thioether N-15)	96	99	0	0				
CCCCCCCCCC[C@@H]1NC(=O)[C@H](CC2CCCCC2)NC(=O)[C@H](CCCNC(=N)N)NC(=O)[C@H](Cc2ccc(C(=O)O)cc2)NC(=O)[C@H](Cc2cccc(OCC(=O)O)c2)NC(=O)CN(C)C(=O)[C@H]([C@@H](C)CC)NC(=O)[C@H](Cc2ccccc2)N(C)C(=O)[C@H](Cc2ccc(O)cc2)NC(=O)[C@H](Cc2c[nH]c3ccccc23)NC(=O)[C@@H](CCCCNC(=O)N2CCN(CC(=O)O)CC2)NC(=O)[C@H](C)NC(=O)CSC[C@H](C(=O)N2CCN(CC(=O)O)CC2)NC(=O)[C@H](Cc2ccccc2)N(C)C(=O)[C@H](C)N(C)C1=O [Myostatin_99_v260] ({CH2CO}-A[dK]([CO-Piperazinyl(4-CH2COOH)])WY[NMeF]I[Sar][Phe(3-OCH2COOH)][Phe(4-COOH)]R[Cha][Gly(decyl)][NMeA][NMeF][dC]-{Piperazinyl(4-CH2COOH)}; thioether N-15)	100	100	37	75				
